Legend:
Format in all cases: cell-based
[1] = system: Pseudomonas aeruginosa ATCC 15442; assay: Bactericidal activity, method EN1040 (Example 1, Table 1); details: biocide alone; for log redn. after contact time 1 hr: contact time 1 hr; for log redn. after contact time 3 hrs: contact time 3 hrs; for log redn. after contact time 6 hrs: contact time 6 hrs; for log redn. after contact time 24 hrs: contact time 24 hrs
Source text: (§1) Lines in grey shading indicate control sample (no PEI or no biocide added): […]

[2] = system: Staphylococcus aureus ATCC 6538; assay: Bactericidal activity, method EN1040 (Example 1, Table 2); details: biocide alone; for log redn. after contact time 1 hr: contact time 1 hr; for log redn. after contact time 3 hrs: contact time 3 hrs; for log redn. after contact time 6 hrs: contact time 6 hrs; for log redn. after contact time 24 hrs: contact time 24 hrs
Source text: as §1

[3] = system: Staphylococcus aureus ATCC 6538; assay: Bactericidal activity, method EN1276 (Example 1, Table 3); details: biocide 250 ppm a.i., no PEI (control), S. aureus ATCC 6538
Source text: as §1

O=[N+]([O-])C(Br)(CO)CO [Bronopol, 2-Bromo-2-nitropropane-1,3-diol]
log redn. after contact time 1 hr ([1]; 0.1% a.i.): <1 log
log redn. after contact time 3 hrs ([1]; 0.1% a.i.): <1 log
log redn. after contact time 6 hrs ([1]; 0.1% a.i.): 4.2 log
log redn. after contact time 24 hrs ([1]; 0.1% a.i.): 2.4 log
log redn. after contact time 1 hr ([2]; 0.1% a.i.): <1 log
log redn. after contact time 3 hrs ([2]; 0.1% a.i.): <1 log
log redn. after contact time 6 hrs ([2]; 0.1% a.i.): <1 log
log redn. after contact time 24 hrs ([2]; 0.1% a.i.): 2.4 log

Oc1cc(Cl)ccc1Oc1ccc(Cl)cc1 [Tinosan® HP 100, Hydroxydichlorodiphenyl Ether]
log redn. after Contact time 5 min [3]: 4.9 log redn.

OCCOc1ccccc1 [phenoxyethanol, 2-Phenoxyethanol]
log redn. after contact time 1 hr ([1]; 1% a.i.): <1 log
log redn. after contact time 3 hrs ([1]; 1% a.i.): 1.3 log
log redn. after contact time 6 hrs ([1]; 1% a.i.): 2.8 log
log redn. after contact time 24 hrs ([1]; 1% a.i.): >6 log
log redn. after contact time 1 hr ([2]; 1% a.i.): <1 log
log redn. after contact time 3 hrs ([2]; 1% a.i.): <1 log
log redn. after contact time 6 hrs ([2]; 1% a.i.): <1 log
log redn. after contact time 24 hrs ([2]; 1% a.i.): 1.1 log

Source: patent publication US11666050B2, “Enhancing the antimicrobial activity of biocides with polymers” (BASF SE, priority 2012, dated 2023)
